Laboratory results as given in PMC10049354, “Anti-Inflammatory Effects and Photo- and Neuro-Protective Properties of BIO203, a New Amide Conjugate of Norbixin, in Development for the Treatment of Age-Related Macular Degeneration (AMD)” (International Journal of Molecular Sciences, 2023).

What was measured:
[1] = BIO203 in plasma and eyes of mice after 6 months of BIO203-containing pellets; format: in vivo
Protocol: (§1) A custom rodent diet was formulated and irradiated (25 kGy) by Envigo RMS SARL (Gannat, France). Low dose (LD)-BIO203 (50 μg/g) and high dose (HD)-BIO203 (500 μg/g) were incorporated into Teklad Custom Research Diet 2016© pellets. The pellets were stored at −20 °C until use and were administered ad libitum as the standard Teklad Global Rodent Diet 2016© used for the control group. The concentration of BIO203 in the customized pellets at the end of each batch was determined by HPLC MS/MS. The mean concentration was 46 μg/g ± 3.5 μg/g of pellet for the LD and 464 μg/g ± 24.3 μg/g of pellet for the HD. We calculated that in the LD group, male mice weighing 31.63 g after 2 months of complementation consumed 4.16 g of pellets, and in the HD group, male mice weighing 34.11 g after 2 months of complementation consumed 4.11 g of pellets every day, which correspond to a daily dose of 6.04 ± 0.46 mg/kg for the LD-BIO203 pellets and 55.91 ± 2.93 mg/kg for the HD-BIO203 pellets.
To test the preventive/curative action of oral administration of BIO203 against retinal neurodegeneration, a total of 27 Pigmented Abca4^−/− Rdh8^−/− mice carrying the Rpe65-Leu450 mutation and the rd8 mutation in the Crb1 gene from Case Western Reserve University of eleven to twelve months of age were used. Three groups of 9 males received control chow (Teklad Custom Research Diet 2016© pellets) or chow containing LD-BIO203 or HD-BIO203 orally for 6 months. After 6 months of complementation, ERG was measured in both eyes. In the control group, two mice died during the period of complementation and one mouse during ERG measurement. In the HD-BIO203 group, one mouse died before the end of complementation, and 3 mice died just after anesthesia. […] In each group, half of the eyes were removed for A2E and BIO203 measurements, and half of the eyes were used for histological analyses and photoreceptor layer quantification.
Analysis was performed on an LC 1260 System coupled with Mass Spectrometer QQQ-6420 with DAD (Agilent Technologies). […] BIO203 and its isomers were monitored by a mass spectrometer, in positive MRM mode, with the following transitions, respectively, 381.1 -> 144.9 and 478.1 -> 362.9. For quantification of BIO201 and BIO203, calibration curves were prepared under the same conditions as the sample matrix, with various amounts of BIO201 or BIO203 (25 to 10,000 ng/mL in plasma and 5 to 500 ng/mL for eyes).
For determination of norbixin or BIO203 concentrations in plasma, aliquots of plasma samples (25 μL) and internal standard (retinoic acid at 10 µg/mL) were distributed in a 96-well microtiter plate and precipitated with methanol (100 μL). […] Under these conditions, with 5 μL injections, the limit of quantification (LOQ) was 25 ng/mL (0.33 pmol for BIO201 and 0.26 pmol for BIO203). […]

Abca4−/− Rdh8−/− mice = experiment: Photoreceptor nuclear layer thickness after 6 months of oral complementation in Abca4−/− Rdh8−/− mice; format: in vivo, mouse; conditions: HD pellets, 17-month-old mice
Protocol: At the end of the measurement period on Day 7, rats were euthanized by an intraperitoneal injection of pentobarbital. Immediately after euthanasia, both eyeballs were sampled, fixed in Davidson’s solution, and processed for histology. Sections (5 to 7 µm thick) were performed along the vertical meridian and stained with Haematoxylin/Eosin stain. The vertical meridian included the optic nerve. […] The thickness of the outer nuclear layer was measured on each point. […] Histology and photoreceptor counting in mice were performed as previously described.
as §1, with “pellets. […]” for “pellets. The pellets were stored at −20 °C until use and were administered ad libitum as the standard Teklad Global Rodent Diet 2016© used for the control group.”, “MS/MS. […]” for “MS/MS. The mean concentration was 46 μg/g ± 3.5 μg/g of pellet for the LD and 464 μg/g ± 24.3 μg/g of pellet for the HD.”, “pellets. […]” for “pellets.”

PPAR = PPAR transactivation assay (Cignal reporter, luciferase) induced by A2E; format: cell-based, pig; conditions: compound 20 μM; A2E 20 μM; RPE cells
Protocol: Transactivation assays were performed as previously described. Briefly, RPE cells were plated in DMEM 2% FCS at a density of 6 × 10^4 cells/cm^2. The next day transfections using the Cignal Reporter Assay Kits for PPAR, RXR, AP-1, and NF-κB were performed with Lipofectamine and Plus Reagent in serum-free medium. Three hours after the transfection, A2E and/or BIO203, both at 20 μM, were added to the culture medium for 24 h. Luciferase activity was measured using the Dual-Luciferase Reporter Assay System and with a luminometer (Infinite M1000 from Tecan, Mannedorf, Switzerland). At least 3 independent transfections were performed in triplicate for each condition.

With `COC1CCCN(C(=O)/C=C/C(C)=C/C=C/C(C)=C/C=C/C=C(C)/C=C/C=C(C)\C=C\C(=O)O)C1` (stereo not drawn) [BIO203] the “BIO203 in the eyes” value ([1]; HD pellets (500 μg/g)) was “not detected”, the “BIO203 in the plasma” value ([1]; HD pellets (500 μg/g)) was “detected” and the “BIO203 in the eyes” value ([1]; LD pellets (50 μg/g)) was “not detected”. For the same molecule, the “BIO203 in the plasma” value ([1]; LD pellets (50 μg/g)) was “absence of BIO203 plasmatic exposure”, the “thickness of the photoreceptor nuclear layer compared with LD or control pellets” value (Abca4−/− Rdh8−/− mice) was “No difference” and the “inhibition of PPAR transactivation induced by A2E” value (PPAR) was “entirely inhibits”.
